Laboratory results published in the CheMixHub viscosity set.

Assay: xn = mol fraction of the nth substance listed

Cc1ccc(C)cc1 + CO
viscosity [mPa·s], 101 kPa
Settings | x1 = 0.0352 | x1 = 0.0758 | x1 = 0.1233 | x1 = 0.1795 | x1 = 0.247 | x1 = 0.3298 | x1 = 0.4336 | x1 = 0.5673 | x1 = 0.747
293.15 K | 0.6087 | 0.6353 | 0.6635 | 0.6929 | 0.7227 | 0.7509 | 0.7731 | 0.7803 | 0.7526
298.15 K | 0.5596 | 0.5732 | 0.5877 | 0.6031 | 0.6191 | 0.6348 | 0.6483 | 0.656 | 0.6489
308.15 K | 0.4893 | 0.4993 | 0.5103 | 0.522 | 0.5342 | 0.5465 | 0.558 | 0.5669 | 0.5649
318.15 K | 0.4296 | 0.4369 | 0.4449 | 0.4536 | 0.4628 | 0.4725 | 0.4823 | 0.4899 | 0.4933

O=C(O)CCC(=O)O + CO
viscosity [mPa·s], 101 kPa
Settings | 308.15 K | 313.15 K | 318.15 K | 323.15 K
x1 = 0.04258 | 0.8055 | 0.7491 | 0.6981 | 0.646
x1 = 0.05573 | 0.9556 | 0.887 | 0.8175 | 0.7603

O=C(O)c1ccccc1C(=O)O + CO
viscosity [mPa·s]
Settings | 308.15 K | 313.15 K | 318.15 K | 323.15 K
101 kPa, x1 = 0.0453 | 0.916 | – | – | 0.7018
101 kPa, x1 = 0.0538 | 1.001 | – | – | 0.79
101 kPa, x1 = 0.0598 | 1.085 | – | – | 0.8526
101 kPa, x1 = 0.0666 | 1.226 | – | – | 0.906
101.33 kPa, x1 = 0.0453 | 0.916 | 0.8445 | 0.777 | 0.718
101.33 kPa, x1 = 0.06 | 1.085 | 1.009 | 0.9326 | 0.8526

c1ccc(Nc2ccccc2)cc1 + CO
viscosity [mPa·s]
Settings | 298.15 K | 303.15 K | 308.15 K | 313.15 K | 318.15 K
101 kPa, x1 = 0.03649 | 0.814 | 0.739 | 0.6818 | 0.6313 | 0.584
101 kPa, x1 = 0.06942 | 1.012 | 0.9262 | 0.8495 | 0.7809 | 0.7151
101.33 kPa, x1 = 0.04 | 0.814 | 0.739 | 0.6818 | 0.6313 | 0.584
101.33 kPa, x1 = 0.0694 | 1.012 | 0.9262 | 0.8495 | 0.7809 | 0.7151

Cc1ccc(C)cc1 + COC(=O)OC
298.15 K, 101.3 kPa
Settings | viscosity [mPa·s]
x2 = 0.1097 | 0.592
x2 = 0.1824 | 0.591
x2 = 0.2345 | 0.59
x2 = 0.2757 | 0.589
x2 = 0.3294 | 0.586
x2 = 0.3683 | 0.586
x2 = 0.5137 | 0.588
x2 = 0.6046 | 0.588
x2 = 0.7164 | 0.59
x2 = 0.8442 | 0.587

CCCCCCCCN + COCCO
308.15 K, 101 kPa
Settings | viscosity [mPa·s]
x2 = 0.1894 | 1.275
x2 = 0.3445 | 1.474
x2 = 0.4739 | 1.614
x2 = 0.5835 | 1.667
x2 = 0.6777 | 1.67
x2 = 0.7592 | 1.609
x2 = 0.8307 | 1.556
x2 = 0.8937 | 1.482
x2 = 0.9498 | 1.379

OCCOCCO + COCCO
viscosity [mPa·s], 101 kPa
Settings | 293.15 K | 298.15 K | 303.15 K
x2 = 0.063 | 32.91 | 25.61 | 18.57
x2 = 0.1046 | 29.55 | 23.08 | 16.7
x2 = 0.1548 | 25.97 | 20.37 | 14.71
x2 = 0.1955 | 23.41 | 18.4 | 13.26
x2 = 0.2599 | 19.9 | 15.69 | 11.28
x2 = 0.3032 | 17.82 | 14.1 | 10.11
x2 = 0.3425 | 16.13 | 12.78 | 9.154
x2 = 0.3978 | 14.02 | 11.13 | 7.954
x2 = 0.4463 | 12.38 | 9.856 | 7.03
x2 = 0.4981 | 10.82 | 8.633 | 6.143
x2 = 0.5488 | 9.459 | 7.565 | 5.383
x2 = 0.5957 | 8.321 | 6.686 | 4.755
x2 = 0.6523 | 7.085 | 5.718 | 4.079
x2 = 0.6987 | 6.176 | 5.003 | 3.59
x2 = 0.7511 | 5.269 | 4.232 | 3.094
x2 = 0.8021 | 4.393 | 3.612 | 2.67
x2 = 0.8546 | 3.602 | 2.998 | 2.276
x2 = 0.8964 | 3.013 | 2.551 | 1.995
x2 = 0.9423 | 2.414 | 2.084 | 1.714

[Cl-].[Cl-].[Cl-].[Cl-].[Ge+4] + COc1ccccc1
viscosity [mPa·s], 101 kPa
Settings | x2 = 0.2185 | x2 = 0.3554 | x2 = 0.4923 | x2 = 0.6922 | x2 = 0.8481
293.15 K | 0.65 | 0.688 | 0.734 | 0.836 | 0.963
303.15 K | 0.591 | 0.621 | 0.654 | 0.732 | 0.836
313.15 K | 0.535 | 0.555 | 0.598 | 0.654 | 0.731
